Calls of active or inactive are those of the source.
Experiments:
Mus musculus [1] = experiment: Anti-osteoporotic activity in Balb/c mouse assessed as inhibition of OVX-induced TRAP mRNA expression level in bone marrow at 25 to 100 mg/kg, ip administered for 4 weeks daily by qRT-PCR method; type: functional, organism-based
RAW264.7 [2] = experiment: Inhibition of RANKL-induced osteoclast differentiation in mouse RAW264.7 cells assessed as TRAP activity after 5 days in presence of estrogen receptor antagonist fulvestrant; type: functional, cell-based
RAW264.7 [3] = experiment: Inhibition of RANKL-induced osteoclast differentiation in mouse RAW264.7 cells assessed as TRAP activity after 5 days in presence of CAMKKbeta inhibitor STO609; type: functional, cell-based
[4] = target: Calcium/calmodulin-dependent protein kinase kinase 2 (Mus musculus) (UniProt Q8C078); experiment: Inhibition of RANKL-induced CAMKKbeta phosphorylation in mouse RAW264.7 cells at 10 to 40 uM after 24 hrs by Western blot analysis; type: cell-based
Chain of Calcium/calmodulin-dependent protein kinase kinase 2 (Mus musculus) (Q8C078 2-588 limits assumed): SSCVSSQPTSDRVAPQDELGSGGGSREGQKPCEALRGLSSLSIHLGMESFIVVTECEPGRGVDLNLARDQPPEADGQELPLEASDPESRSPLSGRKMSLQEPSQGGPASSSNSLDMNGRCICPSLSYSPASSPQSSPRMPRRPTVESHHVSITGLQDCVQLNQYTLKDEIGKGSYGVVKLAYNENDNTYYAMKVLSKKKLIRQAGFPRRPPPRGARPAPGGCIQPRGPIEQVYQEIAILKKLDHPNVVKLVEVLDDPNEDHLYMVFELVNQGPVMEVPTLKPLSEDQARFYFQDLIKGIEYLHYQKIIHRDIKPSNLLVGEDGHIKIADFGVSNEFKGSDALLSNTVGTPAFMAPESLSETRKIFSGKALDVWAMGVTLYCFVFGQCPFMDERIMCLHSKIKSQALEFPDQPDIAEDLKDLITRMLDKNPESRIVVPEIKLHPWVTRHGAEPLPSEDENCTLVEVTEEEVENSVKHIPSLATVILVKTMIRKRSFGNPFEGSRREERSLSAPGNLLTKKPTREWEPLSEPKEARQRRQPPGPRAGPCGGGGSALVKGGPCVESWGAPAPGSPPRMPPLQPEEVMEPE

Mus musculus [5] = experiment: Anti-osteoporotic activity in Balb/c mouse assessed as inhibition of OVX-induced serum CTx level at 25 to 100 mg/kg, ip administered for 4 weeks daily by ELISA; type: functional, organism-based
RAW264.7 [6] = experiment: Inhibition of NF-kappaB/p38 MAPK signaling pathway in mouse RAW264.7 cells assessed as reduction in RANKL-induced MMP-9 mRNA level after 24 hrs by qRT-PCR method; type: cell-based
RAW264.7 [7] = experiment: Inhibition of NF-kappaB/p38 MAPK signaling pathway in mouse RAW264.7 cells assessed as reduction in RANKL-induced TRAP mRNA level after 24 hrs by qRT-PCR method; type: cell-based
RAW264.7 [8] = experiment: Inhibition of RANKL-induced osteoclast differentiation in mouse RAW264.7 cells harboring ERbeta siRNA assessed as decrease in NFATc1 mRNA level at 20 uM after 24 hrs by qRT-PCR method; type: functional, cell-based
RAW264.7 [9] = experiment: Inhibition of RANKL-induced osteoclast differentiation in mouse RAW264.7 cells harboring AMPKalpha1 siRNA assessed as decrease in c-Fos mRNA level at 20 uM after 24 hrs by qRT-PCR method; type: functional, cell-based
RAW264.7 [10] = experiment: Inhibition of RANKL-induced osteoclast differentiation in mouse RAW264.7 cells assessed as decrease in NFATc1 mRNA level at 20 uM after 24 hrs in presence of ERbeta antagonist PHTPP by qRT-PCR method; type: functional, cell-based
Mus musculus [11] = experiment: Anti-osteoporotic activity in Balb/c mouse assessed as inhibition of OVX-induced serum NTx level at 25 to 100 mg/kg, ip administered for 4 weeks daily by ELISA; type: functional, organism-based
RAW264.7 [12] = experiment: Inhibition of RANKL-induced osteoclast differentiation in mouse RAW264.7 cells assessed as decrease in TRAP mRNA level at 20 uM after 24 hrs in presence of ERbeta antagonist PHTPP by qRT-PCR method; type: functional, cell-based
RAW264.7 [13] = experiment: Inhibition of RANKL-induced osteoclast differentiation in mouse RAW264.7 cells assessed as decrease in number of TRAP-positive multinucleated cells after 5 days by microscopy; type: functional, cell-based
Mus musculus [14] = experiment: Anti-osteoporotic activity in Balb/c mouse assessed as inhibition of OVX-induced cathepsin K mRNA expression level in bone marrow at 25 to 100 mg/kg, ip administered for 4 weeks daily by qRT-PCR method; type: functional, organism-based
RAW264.7 [15] = experiment: Inhibition of RANKL-induced osteoclast differentiation in mouse RAW264.7 cells assessed as decrease in number of TRAP-positive multinucleated cells at 20 uM after 5 days in presence of ERalpha antagonist MPP by microscopy; type: functional, cell-based
RAW264.7 [16] = experiment: Inhibition of RANKL-induced osteoclast differentiation in mouse RAW264.7 cells assessed as decrease in c-Fos mRNA level at 20 uM after 24 hrs in presence of ERbeta antagonist PHTPP by qRT-PCR method; type: functional, cell-based
RAW264.7 [17] = experiment: Inhibition of RANKL-induced osteoclast differentiation in mouse RAW264.7 cells harboring ERalpha siRNA assessed as decrease in size of TRAP-positive multinucleated cells at 20 uM after 5 days by microscopy; type: functional, cell-based
RAW264.7 [18] = experiment: Inhibition of RANKL-induced osteoclast differentiation in mouse RAW264.7 cells harboring ERalpha siRNA assessed as decrease in c-Fos mRNA level at 20 uM after 24 hrs by qRT-PCR method; type: functional, cell-based
RAW264.7 [19] = experiment: Inhibition of NF-kappaB signaling pathway in mouse RAW264.7 cells assessed as reduction in RANKL-induced IKKbeta phosphorylation at 10 to 40 uM after 30 mins by Western blot method; type: cell-based
RAW264.7 [20] = experiment: Inhibition of RANKL-induced osteoclast differentiation in mouse RAW264.7 cells harboring ERbeta siRNA assessed as decrease in TRAP activity at 20 uM after 5 days by microscopy; type: functional, cell-based
[21] = target: 5'-AMP-activated protein kinase catalytic subunit alpha-1 (Mus musculus) (UniProt Q5EG47); experiment: Activation of AMPKalpha1 in mouse RAW264.7 cells assessed as increase in AMPK phosphorylation at 10 to 40 uM after 24 hrs by Western blot method; type: cell-based
Chain of 5'-AMP-activated protein kinase catalytic subunit alpha-1 (Mus musculus) (Q5EG47 whole entry): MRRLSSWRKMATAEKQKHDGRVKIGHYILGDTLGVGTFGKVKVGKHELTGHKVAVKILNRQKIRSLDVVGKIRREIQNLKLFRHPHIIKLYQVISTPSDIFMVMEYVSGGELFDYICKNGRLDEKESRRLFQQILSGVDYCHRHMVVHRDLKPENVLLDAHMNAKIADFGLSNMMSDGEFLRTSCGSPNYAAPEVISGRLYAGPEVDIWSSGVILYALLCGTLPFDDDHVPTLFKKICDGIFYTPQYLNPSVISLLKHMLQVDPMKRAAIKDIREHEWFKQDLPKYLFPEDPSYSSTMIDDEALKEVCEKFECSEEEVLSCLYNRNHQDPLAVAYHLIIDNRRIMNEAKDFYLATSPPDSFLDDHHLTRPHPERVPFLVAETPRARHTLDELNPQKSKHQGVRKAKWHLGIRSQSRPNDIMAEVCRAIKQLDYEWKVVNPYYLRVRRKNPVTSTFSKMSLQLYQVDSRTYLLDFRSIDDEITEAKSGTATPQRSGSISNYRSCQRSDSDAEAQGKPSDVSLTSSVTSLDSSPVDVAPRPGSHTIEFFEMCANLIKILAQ

RAW264.7 [22] = experiment: Inhibition of RANKL-induced osteoclast differentiation in mouse RAW264.7 cells harboring ERalpha siRNA assessed as decrease in TRAP activity at 20 uM after 5 days by microscopy; type: functional, cell-based
[23] = target: T1, Estrogen receptor (Mus musculus) (UniProt P19785); experiment: Induction of estrogen receptor-mediated AMPKalpha1 activation in mouse RAW264.7 cells at 20 uM in presence of estrogen receptor antagonist fulvestrant; type: cell-based
T1 sequence (whole entry): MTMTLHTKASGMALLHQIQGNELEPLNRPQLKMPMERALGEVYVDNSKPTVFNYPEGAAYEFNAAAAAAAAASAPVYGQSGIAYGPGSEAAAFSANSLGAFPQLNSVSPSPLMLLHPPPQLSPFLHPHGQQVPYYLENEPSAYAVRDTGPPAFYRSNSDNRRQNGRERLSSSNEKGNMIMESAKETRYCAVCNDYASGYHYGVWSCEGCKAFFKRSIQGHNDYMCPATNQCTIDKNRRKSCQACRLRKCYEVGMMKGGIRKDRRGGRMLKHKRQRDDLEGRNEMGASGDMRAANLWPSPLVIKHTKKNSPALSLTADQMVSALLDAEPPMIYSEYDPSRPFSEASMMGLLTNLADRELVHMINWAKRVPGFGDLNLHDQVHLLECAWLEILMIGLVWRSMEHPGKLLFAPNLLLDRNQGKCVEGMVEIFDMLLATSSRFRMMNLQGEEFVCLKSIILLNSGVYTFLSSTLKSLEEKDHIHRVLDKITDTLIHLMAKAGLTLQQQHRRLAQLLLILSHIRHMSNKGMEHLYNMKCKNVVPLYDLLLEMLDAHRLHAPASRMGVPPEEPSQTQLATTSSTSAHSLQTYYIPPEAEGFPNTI

Mus musculus [24] = experiment: Anti-osteoporotic activity in ip dosed OVX-induced bone loss in femur of Balb/c mouse administered for 4 weeks daily by microcomputed tomography; type: functional, organism-based
Mus musculus [25] = experiment: Anti-osteoporotic activity in Balb/c mouse assessed as decrease in OVX-induced trabecular spacing in femur at 25 to 100 mg/kg, ip administered for 4 weeks daily by microcomputed tomography; type: functional, organism-based

COc1cc(C2Oc3c(OC)cc(/C=C/CO)cc3C2CO)ccc1O (stereo not given)
active: inhibition (Mus musculus [1]) | inhibition (RAW264.7 [3]) | inhibition (Mus musculus [5]) | inhibition (RAW264.7 [6]) Dose-dependent effect | inhibition (RAW264.7 [7]) Dose-dependent effect | inhibition (RAW264.7 [8]) | inhibition (RAW264.7 [10]) | inhibition (Mus musculus [11]) | inhibition (RAW264.7 [12]) | inhibition (RAW264.7 [13]) Dose-dependent effect | inhibition (Mus musculus [14]) | inhibition (RAW264.7 [16]) | inhibition (RAW264.7 [19]) | inhibition (RAW264.7 [20]) | Activity [21] | Activity (Mus musculus [24]) Dose-dependent effect | Activity (Mus musculus [25])
inactive: inhibition (RAW264.7 [2]) | inhibition [4] | inhibition (RAW264.7 [9]) | inhibition (RAW264.7 [15]) | inhibition (RAW264.7 [17]) | inhibition (RAW264.7 [18]) | inhibition (RAW264.7 [22]) | Activity [23]

Reference: ChEMBL document CHEMBL4145608, “Dehydrodiconiferyl Alcohol Inhibits Osteoclast Differentiation and Ovariectomy-Induced Bone Loss through Acting as an Estrogen Receptor Agonist” (J Nat Prod, 2018)
